Measurements from patent US9328083B2, “2-aminated methylene or 2-esterified methylene tanshinone derivatives, and preparation method and application thereof” (HANGZHOU BENSHENG PHARMACEUTICAL CO., LTD., priority 2011, dated 2016).
≈ marks a conversion by molar mass, not a printed value. Blank lines part the entries; values can stand above or below the molecule they belong to.

Key:
[1] = system: H9 (acute lymphoblastic leukemia, ALL); experiment: MTT growth inhibition of leukemia cells, 72 h; format: cell-based, human; conditions: for improvement of anti-H9 activity as compared with tanshinone I: H9, vs tanshinone I; for IC50 / IC90: Homo sapiens, H9, 72 h; for IC50: read-out: IC50; for IC90: read-out: IC90
Description: (§1) Leukemia cell lines: leukemia cell lines: K562/adr (drug-resistant, chronic myeloid leukemia, CML), NB4 (acute promyelocytic leukemia, AML), Kasumi-1 (acute myeloid leukemia M2 type, AML-M2), and Jurkat (acute lymphoblastic leukemia, ALL), all of which are donated by Cancer Research Institute of Zhejiang University, China; and H9 (acute lymphoblastic leukemia, ALL), which is purchased from China Center for Type Culture Collection (CCTCC).
(§2) The standard sample of tanshinone I (TA) and the 2-aminated methylene or 2-esterified methylene tanshinone I derivatives of the present invention are sufficiently dissolved with dimethylsulfoxide to produce a stock solution of 10 mg/mL, which is refrigerated at 4° C. and stored in dark, and is diluted with a cell culture medium to the desired concentration prior to experimentation.
(§3) Obtaining 6000 well-growing leukemia cells and inoculating them into wells of a 96-well cell culture plate. The culture medium is the RPMI-1640 cell culture medium containing 10% fetal bovine serum. After adding on the second day the 2-aminated methylene or 2-esterified methylene tanshinone I derivatives of different concentrations and mixing uniformly, placing the plate in a carbon dioxide cell incubator (5% CO2) at 37° C. and incubated for 72 hours. Then the viable cell concentration is determined by MTT method.

[2] = system: Jurkat (acute lymphoblastic leukemia, ALL); experiment: MTT growth inhibition of leukemia cells, 72 h; format: cell-based, human; conditions: Homo sapiens, 72 h; for IC50: read-out: IC50; for IC90: read-out: IC90
Description: as §1, §2, §3

[3] = system: K562/adr (drug-resistant, chronic myeloid leukemia, CML); experiment: MTT growth inhibition of leukemia cells, 72 h; format: cell-based, human; conditions: Homo sapiens, K562/Adr; for IC50: read-out: IC50; for IC90: read-out: IC90
Description: as §1, §2, §3

[4] = system: Kasumi-1 (acute myeloid leukemia M2 type, AML-M2); experiment: MTT growth inhibition of leukemia cells, 72 h; format: cell-based, human; conditions: Homo sapiens, Kasumi-1, 72 h; for IC50: read-out: IC50; for IC90: read-out: IC90
Description: as §1, §2, §3

[5] = system: NB4 (acute promyelocytic leukemia, AML); experiment: MTT growth inhibition of leukemia cells, 72 h; format: cell-based, human; conditions: for IC50 / IC90: Homo sapiens, NB4, 72 h; for IC50: read-out: IC50; for IC90: read-out: IC90
Description: as §1, §2, §3

[6] = system: RPMI8226 (multiple myeloma); experiment: MTT growth inhibition of multiple myeloma cells, 72 h; format: cell-based, human; conditions: Homo sapiens, RPMI 8226, 72 h; for IC50: read-out: IC50; for IC90: read-out: IC90
Method: Myeloma cell lines: RPMI8226 (multiple myeloma), purchased from Fuxiang Bio-tech Co. Ltd., Shanghai, China.
as §2
as §3, with “myeloma” for “leukemia”, “cells as above” for “cells”, “1640” for “RPMI-1640”, “adding” for “adding on the second day”

A549 (human lung cancer) = experiment: MTT growth inhibition of human solid tumor cells, 72 h; format: cell-based; conditions: Homo sapiens, A549, 72 h; for IC50: read-out: IC50; for IC90: read-out: IC90
Method: (§4) Hep-2 (laryngeal carcinoma), A549 (human lung cancer), CaES-17 (esophageal cancer cell), PC-3 (prostate cancer), CNE (nasopharyngeal carcinoma cell), and SK-OV-3 (ovarian cancer cell), all of which are purchased from China Center For Type Culture Collection; RKO (human colon adenocarcinoma cell), MGC 803 (human gastric cancer cell), MG63 (osteosarcoma) and U87 MG (malignant glioma cell), all of which are purchased from Fuxiang Bio-tech Co. Ltd., Shanghai, China; PANC-1 (pancreatic cancer), Hep G2 (human liver cancer cell), Becap37 (human breast cancer cell) and Hela (human cervical cancer cell), all of which are donated by Cancer Research Institute of Zhejiang University, China.
as §2
(§5) Obtaining 4000 well-growing human solid tumor cells and inoculating them into wells of a 96-well cell culture plate. The culture medium is DMEM High Glucose cell culture medium containing 10% fetal bovine serum. The plate is placed in a carbon dioxide cell incubator (5% CO2) at 37° C. and incubated for 24 hours. After adding the 2-aminated methylene or 2-esterified methylene tanshinone I derivatives of different concentrations and mixing uniformly, the plate is placed in a carbon dioxide cell incubator (5% CO2) at 37° C. and incubated for 72 hours. Then the viable cell concentration is determined by the MTT method.

[7] = system: Becap37 (human breast cancer cell); experiment: as above; format: cell-based; conditions: Homo sapiens, Becap-37, 72 h; for IC50: read-out: IC50; for IC90: read-out: IC90
Method: as §4, §2, §5

[8] = system: CNE (nasopharyngeal carcinoma cell); experiment: as above; format: cell-based; conditions: Homo sapiens; for IC50: read-out: IC50; for IC90: read-out: IC90
Method: as §4, §2, §5

[9] = system: CaES-17 (esophageal cancer cell); experiment: as above; format: cell-based; conditions: Homo sapiens, CaEs17, CaEs-17, 72 h; for IC50: read-out: IC50; for IC90: read-out: IC90
Method: as §4, §2, §5

[10] = system: Hela (human cervical cancer cell); experiment: as above; format: cell-based; conditions: for IC50 / IC90: Homo sapiens, HeLa, 72 h; for IC50: read-out: IC50; for IC90: read-out: IC90
Method: as §4, §2, §5

[11] = system: Hep G2 (human liver cancer cell); experiment: as above; format: cell-based; conditions: Homo sapiens, HepG2, Hep G2, 72 h; for IC50: read-out: IC50; for IC90: read-out: IC90
Method: as §4, §2, §5

[12] = system: Hep-2 (laryngeal carcinoma); experiment: as above; format: cell-based; conditions: for IC50 / IC90: Homo sapiens, HEp-2, 72 h; for IC50: read-out: IC50; for IC90: read-out: IC90
Method: as §4, §2, §5

MG63 (osteosarcoma) = experiment: as above; format: cell-based; conditions: Homo sapiens, MG-63, 72 h; for IC50: read-out: IC50; for IC90: read-out: IC90
Method: as §4, §2, §5

[13] = system: MGC 803 (human gastric cancer cell); experiment: as above; format: cell-based; conditions: Homo sapiens, MGC-803, 72 h; for IC50: read-out: IC50; for IC90: read-out: IC90
Method: as §4, §2, §5

[14] = system: PANC-1 (pancreatic cancer); experiment: as above; format: cell-based; conditions: Homo sapiens, PANC-1, 72 h; for IC50: read-out: IC50; for IC90: read-out: IC90
Method: as §4, §2, §5

PC-3 (prostate cancer) = experiment: as above; format: cell-based; conditions: Homo sapiens, PC-3, 72 h; for IC50: read-out: IC50; for IC90: read-out: IC90
Method: as §4, §2, §5

[15] = system: RKO (human colon adenocarcinoma cell); experiment: as above; format: cell-based; conditions: Homo sapiens; for IC50: read-out: IC50; for IC90: read-out: IC90
Method: as §4, §2, §5

[16] = system: SK-OV-3 (ovarian cancer cell); experiment: as above; format: cell-based; conditions: Homo sapiens, SK-OV-3, 72 h; for IC50: read-out: IC50; for IC90: read-out: IC90
Method: as §4, §2, §5

[17] = system: U87 MG (malignant glioma cell); experiment: as above; format: cell-based; conditions: for IC50 / IC90: Homo sapiens, U-87 MG, U87-MG, 72 h; for IC50: read-out: IC50; for IC90: read-out: IC90
Method: as §4, §2, §5

IC50 [1]: 0.13 µg/mL (≈ 0.372 µM) | IC90 [1]: 0.41 µg/mL (≈ 1.17 µM) | IC50 [2]: 0.17 µg/mL (≈ 0.487 µM) | IC90 [2]: 0.47 µg/mL (≈ 1.35 µM) | IC50 [3]: 0.16 µg/mL (≈ 0.458 µM) | IC90 [3]: 1.08 µg/mL (≈ 3.09 µM) | IC50 [4]: 0.074 µg/mL (≈ 0.212 µM) | IC90 [4]: 0.12 µg/mL (≈ 0.343 µM) | IC50 [5]: 0.04 µg/mL (≈ 0.114 µM) | IC90 [5]: 0.08 µg/mL (≈ 0.229 µM) | IC50 [6]: 0.125 µg/mL (≈ 0.358 µM) | IC90 [6]: 0.25 µg/mL (≈ 0.716 µM) | IC50 (A549 (human lung cancer)): 0.979 µg/mL (≈ 2.8 µM) | IC90 (A549 (human lung cancer)): 3.52 µg/mL (≈ 10.1 µM) | IC50 [7]: 0.27 µg/mL (≈ 0.773 µM) | IC90 [7]: 0.68 µg/mL (≈ 1.95 µM) | IC50 [8]: 0.6 µg/mL (≈ 1.72 µM) | IC90 [8]: 1.8 µg/mL (≈ 5.15 µM) | IC50 [9]: 0.3 µg/mL (≈ 0.859 µM) | IC90 [9]: 0.81 µg/mL (≈ 2.32 µM) | IC50 [10]: 0.42 µg/mL (≈ 1.2 µM) | IC90 [10]: 1 µg/mL (≈ 2.86 µM) | IC50 [11]: 0.31 µg/mL (≈ 0.887 µM) | IC90 [11]: 1.5 µg/mL (≈ 4.29 µM) | IC50 [12]: 0.78 µg/mL (≈ 2.23 µM) | IC90 [12]: 2.38 µg/mL (≈ 6.81 µM) | IC50 (MG63 (osteosarcoma)): 0.31 µg/mL (≈ 0.887 µM) | IC90 (MG63 (osteosarcoma)): 0.98 µg/mL (≈ 2.8 µM) | IC50 [13]: 0.15 µg/mL (≈ 0.429 µM) | IC90 [13]: 1.7 µg/mL (≈ 4.87 µM) | IC50 [14]: 0.26 µg/mL (≈ 0.744 µM) | IC90 [14]: 1.9 µg/mL (≈ 5.44 µM) | IC50 (PC-3 (prostate cancer)): 0.44 µg/mL (≈ 1.26 µM) | IC90 (PC-3 (prostate cancer)): 3.58 µg/mL (≈ 10.2 µM) | IC50 [15]: 0.037 µg/mL (≈ 0.106 µM) | IC90 [15]: 0.29 µg/mL (≈ 0.83 µM) | IC50 [16]: 0.86 µg/mL (≈ 2.46 µM) | IC90 [16]: 1.91 µg/mL (≈ 5.47 µM) | IC50 [17]: 0.15 µg/mL (≈ 0.429 µM) | IC90 [17]: 0.35 µg/mL (≈ 1 µM)
Structure (SMILES): Cc1c(CNCCO)oc2c1C(=O)C(=O)c1c-2ccc2c(C)cccc12 [BS-TA-65]
improvement of anti-H9 activity as compared with tanshinone I [1]: 27 fold | improvement of anti-NB4 activity as compared with tanshinone I ([5]; NB4, vs tanshinone I): 24 fold | improvement of anti-U87 MG activity as compared with tanshinone I ([17]; U87 MG, vs tanshinone I): more than 42 fold

IC50 [1]: 0.125 µg/mL (≈ 0.27 µM) | IC90 [1]: 0.49 µg/mL (≈ 1.06 µM) | IC50 [2]: 0.37 µg/mL (≈ 0.8 µM) | IC90 [2]: 0.94 µg/mL (≈ 2.03 µM) | IC50 [3]: 0.47 µg/mL (≈ 1.02 µM) | IC90 [3]: 0.76 µg/mL (≈ 1.64 µM) | IC50 [4]: 0.13 µg/mL (≈ 0.281 µM) | IC90 [4]: 0.39 µg/mL (≈ 0.843 µM) | IC50 [5]: 0.15 µg/mL (≈ 0.324 µM) | IC90 [5]: 0.41 µg/mL (≈ 0.886 µM) | IC50 [6]: 0.25 µg/mL (≈ 0.54 µM) | IC90 [6]: 0.83 µg/mL (≈ 1.79 µM) | IC50 (A549 (human lung cancer)): 0.8 µg/mL (≈ 1.73 µM) | IC90 (A549 (human lung cancer)): 2.82 µg/mL (≈ 6.1 µM) | IC50 [7]: 0.4 µg/mL (≈ 0.865 µM) | IC90 [7]: 0.9 µg/mL (≈ 1.95 µM) | IC50 [8]: 0.63 µg/mL (≈ 1.36 µM) | IC90 [8]: 1.43 µg/mL (≈ 3.09 µM) | IC50 [9]: 0.52 µg/mL (≈ 1.12 µM) | IC90 [9]: 0.59 µg/mL (≈ 1.28 µM) | IC50 [10]: 0.47 µg/mL (≈ 1.02 µM) | IC90 [10]: 1.75 µg/mL (≈ 3.78 µM) | IC50 [11]: 0.66 µg/mL (≈ 1.43 µM) | IC90 [11]: 1.85 µg/mL (≈ 4 µM) | IC50 [12]: 0.62 µg/mL (≈ 1.34 µM) | IC90 [12]: 1.76 µg/mL (≈ 3.81 µM) | IC50 (MG63 (osteosarcoma)): 0.61 µg/mL (≈ 1.32 µM) | IC90 (MG63 (osteosarcoma)): 1.79 µg/mL (≈ 3.87 µM) | IC50 [13]: 0.41 µg/mL (≈ 0.886 µM) | IC90 [13]: 2.24 µg/mL (≈ 4.84 µM) | IC50 [14]: 0.4 µg/mL (≈ 0.865 µM) | IC90 [14]: 4.73 µg/mL (≈ 10.2 µM) | IC50 (PC-3 (prostate cancer)): 0.92 µg/mL (≈ 1.99 µM) | IC90 (PC-3 (prostate cancer)): 3.74 µg/mL (≈ 8.09 µM) | IC50 [15]: 0.14 µg/mL (≈ 0.303 µM) | IC90 [15]: 1.28 µg/mL (≈ 2.77 µM) | IC50 [16]: 1.66 µg/mL (≈ 3.59 µM) | IC90 [16]: 3.39 µg/mL (≈ 7.33 µM) | IC50 [17]: 0.66 µg/mL (≈ 1.43 µM) | IC90 [17]: 1.55 µg/mL (≈ 3.35 µM)
Structure (SMILES): Cc1c(CN(C)CCOC(=O)[C@@H](N)C(C)C)oc2c1C(=O)C(=O)c1c-2ccc2c(C)cccc12 [BS-TA-71]
improvement of anti-H9 activity as compared with tanshinone I [1]: 28 fold | improvement of anti-Hela activity as compared with tanshinone I ([10]; Hela, vs tanshinone I): more than 8 fold | improvement of anti-Hep-2 activity as compared with tanshinone I ([12]; Hep-2, vs tanshinone I): more than 4 fold
